Source: US20070128217A1 (priority 2003, published 2007)

Assays:
[1] = tested on: antibodies in sera from SARS patients (sera 1a, 1b, 2, 6, 37, 62, London, SARS-yellow, SARS-green); type: binding, human; set-up: Binding of serum 6 to linear peptides of protein X1 of SARS-CoV Urbani / Binding of serum 37 to linear peptides of protein X1 of SARS-CoV Urbani / Binding of serum 6 to looped/cyclic peptide (PEPSCAN-ELISA) / Binding of serum 37 to looped/cyclic peptide (PEPSCAN-ELISA) / Binding of serum 37 to looped/cyclic peptides of protein X1 of SARS-CoV Urbani / Binding of serum 6 to linear peptides of protein X2 / Binding of serum 37 to linear peptides of protein X2 / Binding of serum 37 to looped/cyclic peptides of protein X2 of SARS-CoV Urbani / Binding of serum 6 to linear peptides of protein M of SARS-CoV Urbani / Binding of serum 37 to linear peptides of protein M of SARS-CoV Urbani / Binding of serum 6 to looped/cyclic peptides of protein M of SARS-CoV Urbani / Binding of serum 37 to looped/cyclic peptides of protein M of SARS-CoV Urbani / Binding of serum 6 to linear peptides of protein X3 of SARS-CoV Urbani / Binding of serum 37 to linear peptides of protein X3 of SARS-CoV Urbani / Binding of serum 37 to looped/cyclic peptides of protein X3 of SARS-CoV Urbani / Binding of serum 6 to linear peptides of protein X4 of SARS-CoV Urbani / Binding of serum 37 to linear peptides of protein X4 of SARS-CoV Urbani / Binding of serum 37 to looped/cyclic peptides of protein X4 of SARS-CoV Urbani / Binding of serum 6 to linear peptides of protein X5 of SARS-CoV Urbani / Binding of serum 37 to linear peptides of protein X5 of SARS-CoV Urbani / Binding of serum 37 to looped/cyclic peptides of protein X5 of SARS-CoV Urbani / Binding of serum 6 to linear peptides of protein N of SARS-CoV Urbani / Binding of serum 37 to linear peptides of protein N of SARS-CoV Urbani / Binding of serum 6 to linear peptide (PEPSCAN-ELISA) / Binding of serum 1a to looped/cyclic peptides of protein N of SARS-CoV Urbani / Binding of serum 1b to looped/cyclic peptides of protein N of SARS-CoV Urbani / Binding of serum 2 to looped/cyclic peptides of protein N of SARS-CoV Urbani / Binding of serum 6 to looped/cyclic peptides of protein N of SARS-CoV Urbani / Binding of serum 37 to looped/cyclic peptides of protein N of SARS-CoV Urbani / Binding of serum 62 to looped/cyclic peptides of protein N of SARS-CoV Urbani / Binding of serum London to looped/cyclic peptides of protein N of SARS-CoV Urbani / Binding of serum SARS-green to looped/cyclic peptides of protein N of SARS-CoV Urbani: unit not given here
[2] = tested on: control sera (pooled serum of ten healthy LUMC hospital workers; commercial negative donor pooled serum from the Dutch bloodbank); type: binding, human; set-up: Binding of Control serum LUMC to linear peptides / Binding of Control serum Blood-bank to linear peptides / Binding of Control serum LUMC to looped peptides / Binding of Control Serum Blood-Bank to Looped peptides / Binding of Control serum LUMC to linear peptides of the protein M of SARS-CoV Urbani / Binding of Control serum Blood-bank to linear peptides of the protein M of SARS-CoV Urbani / Binding of Control serum LUMC to looped peptides of the protein M of SARS-CoV Urbani / Binding of Control Serum Blood-Bank to Looped peptides of the protein M of SARS-CoV Urbani: unit not given here
[3] = tested on: rabbit serum obtained by immunizing a rabbit with the SARS-CoV strain Frankfurt 1; type: binding; set-up: Binding of a rabbit serum to linear peptides / Binding of a rabbit serum to looped peptides / Rabbit serum linear peptides / Rabbit serum looped peptides / Binding of a rabbit serum to linear peptides of protein N of SARS-CoV Urbani (Rabbit serum linear peptides) / Binding of a rabbit serum to looped/cyclic peptides of protein N of SARS-CoV Urbani (Rabbit serum looped peptides): unit not given here
[4] = tested on: recombinant human anti-SARS-CoV antibody 03-018; type: binding; set-up: Binding of antibody 03-018 to linear peptides of the N protein of SARS-CoV Urbani / Binding of antibody 03-018 to looped/cyclic peptides of the N protein of SARS-CoV Urbani: unit not given here

Sequence: FSRQLQNSMSGASAD
- Binding of serum 1a to linear peptides of protein N of SARS-CoV Urbani [1]: 0.2
- Binding of serum 1a to looped/cyclic peptides of protein N of SARS-CoV Urbani [1]: 0.2
- Binding of serum 1b to linear peptides of protein N of SARS-CoV Urbani [1]: 0.1
- Binding of serum 1b to looped/cyclic peptides of protein N of SARS-CoV Urbani [1]: 0.1
- Binding of serum 2 to linear peptides of protein N of SARS-CoV Urbani [1]: 0.1
- Binding of serum 2 to looped/cyclic peptides of protein N of SARS-CoV Urbani [1]: 0.2
- Binding of serum 6 to linear peptides of protein N of SARS-CoV Urbani [1]: 0.2
- Binding of serum 6 to looped/cyclic peptides of protein N of SARS-CoV Urbani [1]: 0.1
- Binding of serum 37 to linear peptides of protein N of SARS-CoV Urbani [1]: 0.7
- Binding of serum 37 to looped/cyclic peptides of protein N of SARS-CoV Urbani [1]: 0.4
- Binding of serum 62 to linear peptides of protein N of SARS-CoV Urbani [1]: 0.6
- Binding of serum 62 to looped/cyclic peptides of protein N of SARS-CoV Urbani [1]: 0.2
- Binding of serum London to linear peptides of protein N of SARS-CoV Urbani [1]: 0.6
- Binding of serum London to looped/cyclic peptides of protein N of SARS-CoV Urbani [1]: 0.2
- Binding of serum SARS-green to linear peptides of protein N of SARS-CoV Urbani [1]: 0.6
- Binding of serum SARS-green to looped/cyclic peptides of protein N of SARS-CoV Urbani [1]: 0.0
- Binding of serum SARS-yellow to linear peptides of protein N of SARS-CoV Urbani [1]: 0.4
- Binding of serum SARS-yellow to looped/cyclic peptides of protein N of SARS-CoV Urbani [1]: 0.0
- Control Serum Blood-Bank Looped peptides [2]: 0.4
- Control serum Blood-bank linear peptides [2]: 0.7
- Control serum LUMC linear peptides [2]: 0.6
- Control serum LUMC looped peptides [2]: 0.2
- Binding of a rabbit serum to linear peptides of protein N of SARS-CoV Urbani (Rabbit serum linear peptides) [3]: 0.4
- Binding of a rabbit serum to looped/cyclic peptides of protein N of SARS-CoV Urbani (Rabbit serum looped peptides) [3]: 0.1
- Binding of antibody 03-018 to linear peptides of the N protein of SARS-CoV Urbani [4]: 0.1
- Binding of antibody 03-018 to looped/cyclic peptides of the N protein of SARS-CoV Urbani [4]: 0.2

Sequence: FTALTQHGKEELRFP
- Binding of serum 1a to linear peptides of protein N of SARS-CoV Urbani [1]: 0.3
- Binding of serum 1a to looped/cyclic peptides of protein N of SARS-CoV Urbani [1]: 0.2
- Binding of serum 1b to linear peptides of protein N of SARS-CoV Urbani [1]: 0.2
- Binding of serum 1b to looped/cyclic peptides of protein N of SARS-CoV Urbani [1]: 0.1
- Binding of serum 2 to linear peptides of protein N of SARS-CoV Urbani [1]: 0.3
- Binding of serum 2 to looped/cyclic peptides of protein N of SARS-CoV Urbani [1]: 0.3
- Binding of serum 6 to linear peptides of protein N of SARS-CoV Urbani [1]: 0.2
- Binding of serum 6 to looped/cyclic peptides of protein N of SARS-CoV Urbani [1]: 0.1
- Binding of serum 37 to linear peptides of protein N of SARS-CoV Urbani [1]: 0.8
- Binding of serum 37 to looped/cyclic peptides of protein N of SARS-CoV Urbani [1]: 0.4
- Binding of serum 62 to linear peptides of protein N of SARS-CoV Urbani [1]: 0.7
- Binding of serum 62 to looped/cyclic peptides of protein N of SARS-CoV Urbani [1]: 0.3
- Binding of serum London to linear peptides of protein N of SARS-CoV Urbani [1]: 0.5
- Binding of serum London to looped/cyclic peptides of protein N of SARS-CoV Urbani [1]: 0.2
- Binding of serum SARS-green to linear peptides of protein N of SARS-CoV Urbani [1]: 0.7
- Binding of serum SARS-green to looped/cyclic peptides of protein N of SARS-CoV Urbani [1]: 0.0
- Binding of serum SARS-yellow to linear peptides of protein N of SARS-CoV Urbani [1]: 0.6
- Binding of serum SARS-yellow to looped/cyclic peptides of protein N of SARS-CoV Urbani [1]: 0.1
- Binding of Control Serum Blood-Bank to Looped peptides [2]: 0.5
- Binding of Control serum Blood-bank to linear peptides [2]: 0.7
- Binding of Control serum LUMC to linear peptides [2]: 0.7
- Binding of Control serum LUMC to looped peptides [2]: 0.3
- Binding of a rabbit serum to linear peptides of protein N of SARS-CoV Urbani (Rabbit serum linear peptides) [3]: 0.2
- Binding of a rabbit serum to looped/cyclic peptides of protein N of SARS-CoV Urbani (Rabbit serum looped peptides) [3]: 0.1
- Binding of antibody 03-018 to linear peptides of the N protein of SARS-CoV Urbani [4]: 0.1
- Binding of antibody 03-018 to looped/cyclic peptides of the N protein of SARS-CoV Urbani [4]: 0.2

Sequence: FYYLGTGPEASLPYG
- Binding of serum 1a to linear peptides of protein N of SARS-CoV Urbani [1]: 0.3
- Binding of serum 1a to looped/cyclic peptides of protein N of SARS-CoV Urbani [1]: 0.4
- Binding of serum 1b to linear peptides of protein N of SARS-CoV Urbani [1]: 0.1
- Binding of serum 1b to looped/cyclic peptides of protein N of SARS-CoV Urbani [1]: 0.3
- Binding of serum 2 to linear peptides of protein N of SARS-CoV Urbani [1]: 0.2
- Binding of serum 2 to looped/cyclic peptides of protein N of SARS-CoV Urbani [1]: 0.4
- Binding of serum 6 to linear peptides of protein N of SARS-CoV Urbani [1]: 0.2
- Binding of serum 6 to looped/cyclic peptides of protein N of SARS-CoV Urbani [1]: 0.2
- Binding of serum 37 to linear peptides of protein N of SARS-CoV Urbani [1]: 0.6
- Binding of serum 37 to looped/cyclic peptides of protein N of SARS-CoV Urbani [1]: 0.7
- Binding of serum 62 to linear peptides of protein N of SARS-CoV Urbani [1]: 0.7
- Binding of serum 62 to looped/cyclic peptides of protein N of SARS-CoV Urbani [1]: 0.6
- Binding of serum London to linear peptides of protein N of SARS-CoV Urbani [1]: 0.5
- Binding of serum London to looped/cyclic peptides of protein N of SARS-CoV Urbani [1]: 0.5
- Binding of serum SARS-green to linear peptides of protein N of SARS-CoV Urbani [1]: 0.4
- Binding of serum SARS-green to looped/cyclic peptides of protein N of SARS-CoV Urbani [1]: 0.4
- Binding of serum SARS-yellow to linear peptides of protein N of SARS-CoV Urbani [1]: 0.7
- Binding of serum SARS-yellow to looped/cyclic peptides of protein N of SARS-CoV Urbani [1]: 0.7
- Binding of Control Serum Blood-Bank to Looped peptides [2]: 0.7
- Binding of Control serum Blood-bank to linear peptides [2]: 0.6
- Binding of Control serum LUMC to linear peptides [2]: 0.7
- Binding of Control serum LUMC to looped peptides [2]: 0.7
- Binding of a rabbit serum to linear peptides of protein N of SARS-CoV Urbani (Rabbit serum linear peptides) [3]: 0.1
- Binding of a rabbit serum to looped/cyclic peptides of protein N of SARS-CoV Urbani (Rabbit serum looped peptides) [3]: 0.6
- Binding of antibody 03-018 to linear peptides of the N protein of SARS-CoV Urbani [4]: 0.1
- Binding of antibody 03-018 to looped/cyclic peptides of the N protein of SARS-CoV Urbani [4]: 0.2
